Measured values from patent publication US20230017045A1, “PYRIDINE AND PYRIMIDINE CARBOXYLATE HERBICIDES AND METHODS OF USE THEREOF” (Dow AgroSciences LLC, priority 2017, published 2023).
Where two headings read alike, the source gives them in different places.

Test system: test plant species
Assay: Post-emergent herbicidal activity test (greenhouse, foliar spray, visual growth reduction)
Format: in vivo
Conditions: post-emergence, 336 h, 140 g ai/ha
Method: Post-emergent Test: Seeds or nutlets of the desired test plant species were planted in Sun Gro Metro-Mix® 360 planting mixture, which typically has a pH of 6.0 to 6.8 and an organic matter content of about 30 percent, in plastic pots with a surface area of 64 square centimeters. In some aspects, to ensure good germination and healthy plants, a fungicide treatment and/or other chemical or physical treatment was applied. The plants were grown for 7-21 d in a greenhouse with an approximate 15 h photoperiod which was maintained at 23-29° C. during the day and 22-28° C. during the night. Nutrients and water were added on a regular basis and supplemental lighting was provided with overhead metal halide 1000-Watt lamps as necessary. Plants were used for testing when they reached the first or second true leaf stage. A weighed amount, determined by the highest rate to be tested, of each test compound was placed in a 25 mL glass vial and was dissolved in 4 mL of a 97:3 v/v mixture of acetone and DMSO to obtain concentrated stock solutions. […] The concentrated stock solutions obtained were diluted with 20 mL of an aqueous mixture containing acetone, water, isopropyl alcohol, DMSO, […] crop oil concentrate, and X-77 surfactant in a 48.5:39:10:1.5:1.0:0.02 v/v ratio to obtain spray solutions containing the application rate. Compound requirements are based upon a 12 mL application volume at a rate of 187 liters per hectare (L/ha). Formulated compounds were applied to the plant material with an overhead Mandel track sprayer equipped with […] nozzles calibrated to deliver 187 L/ha over an application area of 0.64 square meters at a spray height of 18 inches (43 cm) above the average plant canopy height. Control plants were sprayed in the same manner with the solvent blank. The treated plants and control plants were placed in a greenhouse as described above and watered by subirrigation to prevent wash-off of the test compounds. After 14 d, the condition of the test plants as compared with that of the nontreated and control plants was determined visually and scored on a scale of 0 to 100 percent where 0 corresponds to no injury and 100 corresponds to complete control. In the reporting of the results, Table A: Percent Growth Reduction Conversion Table was used.

[1] = ECHCG: barnyardgrass (Echinochloa crus-galli), 14 days after application, read-out: Visual Growth Reduction (%) 14 Days After Application, ECHCG
[2] = IPOHE: ivy-leaf morning glory (Ipomoea hederacea), 14 days after application, read-out: Visual Growth Reduction (%) 14 Days After Application, IPOHE
[3] = KCHSC: kochia (Bassia scoparia), 14 days after application, read-out: Visual Growth Reduction (%) 14 Days After Application, KCHSC
[4] = ORYSA: rice (Oryza sativa), 14 days after application, read-out: Visual Growth Reduction (%) 14 Days After Application, ORYSA
[5] = SETFA: giant foxtail (Setaria faberi), 14 days after application, read-out: Visual Growth Reduction (%) 14 Days After Application, SETFA
[6] = SORVU: grain sorghum (Sorghum vulgare), 14 days after application, read-out: Visual Growth Reduction (%) 14 Days After Application, SORVU
[7] = STEME: common chickweed (Stellaria media), 14 days after application, read-out: Visual Growth Reduction (%) 14 Days After Application, STEME
[8] = TRZAS: wheat, spring (Triticum aestivum), 14 days after application, read-out: Visual Growth Reduction (%) 14 Days After Application, TRZAS
[9] = blackgrass (Alopecurus myosuroides), 14 Days After Application, read-out: Visual Growth Reduction (%) ALOMY
[10] = canada thistle (Cirsium arvense), 14 Days After Application, read-out: Visual Growth Reduction (%) CIRAR
[11] = crabgrass (Digitaria sanguinalis), 14 Days After Application, read-out: Visual Growth Reduction (%) DIGSA
[12] = lambsquarters (Chenopodium album), 14 Days After Application, read-out: Visual Growth Reduction (%) CHEAL
[13] = redroot pigweed (Amaranthus retroflexus), 14 Days After Application, read-out: Visual Growth Reduction (%) AMARE
[14] = wild oat (Avena fatua), 14 Days After Application, read-out: Visual Growth Reduction (%) AVEFA
[15] = yellow nutsedge (Cyperus esculentus), 14 Days After Application, read-out: Visual Growth Reduction (%) CYPES

In the case of `O=C(O)c1nc(-c2ccc(C(F)(F)F)c(C(F)F)c2F)c(F)cc1Cl` [F294, 3-Chloro-6-(3-(difluoromethyl)-2-fluoro-4-(trifluoromethyl)phenyl)-5-fluoropicolinic acid], the pest or weed control at 140 g/ha [1] was 60 to 74%, the pest or weed control at 140 g/ha [2] was 95 to 100% and the pest or weed control at 140 g/ha [3] was 75 to 84%. The pest or weed control at 140 g/ha [4] was 0 to 29%, the pest or weed control at 140 g/ha [5] was 85 to 94% and the pest or weed control at 140 g/ha [6] was 95 to 100%. The pest or weed control at 140 g/ha [7] was 0 to 29%, the pest or weed control at 140 g/ha [8] was 60 to 74% and the pest or weed control at 140 g/ha [9] was 75 to 84%. The pest or weed control at 140 g/ha [10] was 75 to 84%, the pest or weed control at 140 g/ha [11] was 85 to 94% and the pest or weed control at 140 g/ha [12] was 85 to 94%. It also gave a pest or weed control at 140 g/ha [13] of 95 to 100%, a pest or weed control at 140 g/ha [14] of 60 to 74% and a pest or weed control at 140 g/ha [15] of 0 to 29%.
Work on `COC(=O)c1nc(-c2ccc(C(F)(F)F)cc2F)ncc1Cl` [F312, Methyl 5-chloro-2-(2-fluoro-4-(trifluoromethyl)phenyl) pyrimidine-4-carboxylate] yielded a pest or weed control at 140 g/ha [1] of 75 to 84%, a pest or weed control at 140 g/ha [2] of 95 to 100% and a pest or weed control at 140 g/ha [3] of 0 to 29%. It also gave a pest or weed control at 140 g/ha [4] of 0 to 29%, a pest or weed control at 140 g/ha [5] of 60 to 74% and a pest or weed control at 140 g/ha [6] of 85 to 94%. The pest or weed control at 140 g/ha [7] was 0 to 29%, the pest or weed control at 140 g/ha [8] was 30 to 44% and the pest or weed control at 140 g/ha [9] was 0 to 29%. For the same compound, the pest or weed control at 140 g/ha [10] was 85 to 94%, the pest or weed control at 140 g/ha [11] was 85 to 94% and the pest or weed control at 140 g/ha [12] was 85 to 94%. It also gave a pest or weed control at 140 g/ha [13] of 85 to 94%, a pest or weed control at 140 g/ha [14] of 0 to 29% and a pest or weed control at 140 g/ha [15] of 45 to 59%.
Compound `O=C(O)c1nc(-c2ncc(Cl)cc2Cl)ccc1Cl` [F195, 3′,5,5′-Trichloro-[2,2′-bipyridine]-6-carboxylic acid] has a pest or weed control at 140 g/ha (ALOMY: blackgrass (Alopecurus myosuroides), 14 days after application, read-out: Visual Growth Reduction (%) 14 Days After Application, ALOMY) of 0 to 29%, a pest or weed control at 140 g/ha (AMARE: redroot pigweed (Amaranthus retroflexus), 14 days after application, read-out: Visual Growth Reduction (%) 14 Days After Application, AMARE) of 95 to 100% and a pest or weed control at 140 g/ha (AVEFA: wild oat (Avena fatua), 14 days after application, read-out: Visual Growth Reduction (%) 14 Days After Application, AVEFA) of 30 to 44%. For the same compound, the pest or weed control at 140 g/ha (CHEAL: lambsquarters (Chenopodium album), 14 days after application, read-out: Visual Growth Reduction (%) 14 Days After Application, CHEAL) was 95 to 100%, the pest or weed control at 140 g/ha (CIRAR: canada thistle (Cirsium arvense), 14 days after application, read-out: Visual Growth Reduction (%) 14 Days After Application, CIRAR) was 0 to 29% and the pest or weed control at 140 g/ha (CYPES: yellow nutsedge (Cyperus esculentus), 14 days after application, read-out: Visual Growth Reduction (%) 14 Days After Application, CYPES) was 0 to 29%. It also gave a pest or weed control at 140 g/ha (DIGSA: crabgrass (Digitaria sanguinalis), 14 days after application, read-out: Visual Growth Reduction (%) 14 Days After Application, DIGSA) of 60 to 74%, a pest or weed control at 140 g/ha [1] of 75 to 84% and a pest or weed control at 140 g/ha [2] of 95 to 100%. The pest or weed control at 140 g/ha [3] was 60 to 74%, the pest or weed control at 140 g/ha [4] was 30 to 44% and the pest or weed control at 140 g/ha [5] was 60 to 74%. It also gave a pest or weed control at 140 g/ha [6] of 85 to 94%, a pest or weed control at 140 g/ha [7] of 0 to 29% and a pest or weed control at 140 g/ha [8] of 45 to 59%.
`COC(=O)c1nc(-c2cc([N+](=O)[O-])c(C(F)(F)F)cc2Cl)c(F)cc1Cl` [F322, Methyl 3-chloro-6-(2-chloro-5-nitro-4-(trifluoromethyl)phenyl)-5-fluoropicolinate] gave a pest or weed control at 140 g/ha [1] of 0 to 29%, a pest or weed control at 140 g/ha [2] of 95 to 100% and a pest or weed control at 140 g/ha [3] of 0 to 29%. For the same compound, the pest or weed control at 140 g/ha [4] was 0 to 29%, the pest or weed control at 140 g/ha [5] was 0 to 29% and the pest or weed control at 140 g/ha [6] was 0 to 29%. For the same compound, the pest or weed control at 140 g/ha [7] was 0 to 29%, the pest or weed control at 140 g/ha [8] was 0 to 29% and the pest or weed control at 140 g/ha [9] was 0 to 29%. It also gave a pest or weed control at 140 g/ha [10] of 30 to 44%, a pest or weed control at 140 g/ha [11] of 0 to 29% and a pest or weed control at 140 g/ha [12] of 75 to 84%. It also gave a pest or weed control at 140 g/ha [13] of 60 to 74%, a pest or weed control at 140 g/ha [14] of 0 to 29% and a pest or weed control at 140 g/ha [15] of 0 to 29%.
